How the values were obtained:
Assay in all cases: relative viability (nuclei count vs DMSO), 5 days (fraction); higher = more cells survive
[1] = compound: C1CC2=C(C1)C=C(C=C2)OC3=NC(=C4C(=N3)N(C=N4)CC5=CC=C(C=C5)C6=CC=CC=C6)N[C@@H](CC7=CC=CC=C7)CO [QS11] + CS(=O)(=O)CCNCc1ccc(-c2ccc3ncnc(Nc4ccc(OCc5cccc(F)c5)c(Cl)c4)c3c2)o1 [Lapatinib] (partner 2 µM)
In short: (§1)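 Lung cancer cell lines were pin-tool dosed in 1536-well plates on the day after seeding, with either a lone drug or a fixed anchor-drug dose plus five library-drug doses (not always all listed) in √10 steps. Nuclei were counted on 4× images after 5 days. Relative viability is the ratio of treated-well to vehicle-well nuclei counts, with each value a median of duplicate plates.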

[2] = compound: C1CC2=C(C1)C=C(C=C2)OC3=NC(=C4C(=N3)N(C=N4)CC5=CC=C(C=C5)C6=CC=CC=C6)N[C@@H](CC7=CC=CC=C7)CO [QS11] + CC1(C)CCC(c2ccc(Cl)cc2)=C(CN2CCN(c3ccc(C(=O)NS(=O)(=O)c4ccc(N[C@H](CCN5CCOCC5)CSc5ccccc5)c(S(=O)(=O)C(F)(F)F)c4)cc3)CC2)C1 [Navitoclax] (partner 0.5 µM)
In short: as §1

[3] = compound: CC1=C(C=C(C=C1)NC(=O)C2=CC(=CC=C2)C(C)(C)C#N)NC3=CC4=C(C=C3)N=CN(C4=O)C [AZ628] + C[C@]1(O)C[C@@H](c2nc(-c3ccc4ccc(-c5ccccc5)nc4c3)c3c(N)nccn32)C1 [Linsitinib] (partner 1 µM)
In short: as §1

[4] = compound: CC1=C(C=C(C=C1)NC(=O)C2=CC(=CC=C2)C(C)(C)C#N)NC3=CC4=C(C=C3)N=CN(C4=O)C [AZ628] + CC(C)C[C@H](NC(=O)[C@H](Cc1ccccc1)NC(=O)c1cnccn1)B(O)O [Bortezomib] (partner 0.002 µM)
In short: as §1

## NCI-H23
[1]; first compound 0.08 µM
  relative viability: 1.01
[1]; first compound 0.253 µM
  relative viability: 0.988
[1]; first compound 0.8 µM
  relative viability: 0.871
[1]; first compound 2.53 µM
  relative viability: 0.885
[1]; first compound 8 µM
  relative viability: 1.1
[2]; first compound 0.08 µM
  relative viability: 0.818
[2]; first compound 0.253 µM
  relative viability: 0.863
[2]; first compound 0.8 µM
  relative viability: 0.872
[2]; first compound 2.53 µM
  relative viability: 0.75
[2]; first compound 8 µM
  relative viability: 0.692
[3]; first compound 0.08 µM
  relative viability: 0.562
[3]; first compound 0.253 µM
  relative viability: 0.481
[3]; first compound 0.8 µM
  relative viability: 0.28
[3]; first compound 2.53 µM
  relative viability: 0.376
[3]; first compound 8 µM
  relative viability: 0.32
[4]; first compound 0.08 µM
  relative viability: 1.12
[4]; first compound 0.253 µM
  relative viability: 1.01
[4]; first compound 0.8 µM
  relative viability: 0.805
[4]; first compound 2.53 µM
  relative viability: 0.887
[4]; first compound 8 µM
  relative viability: 0.551

## NCI-H322M
[1]; first compound 0.08 µM
  relative viability: 0.573
[1]; first compound 0.253 µM
  relative viability: 0.642
[1]; first compound 0.8 µM
  relative viability: 0.559
[1]; first compound 2.53 µM
  relative viability: 0.576
[1]; first compound 8 µM
  relative viability: 0.628
[2]; first compound 0.08 µM
  relative viability: 1.21
[2]; first compound 0.253 µM
  relative viability: 1.21
[2]; first compound 0.8 µM
  relative viability: 1.22
[2]; first compound 2.53 µM
  relative viability: 1.35
[2]; first compound 8 µM
  relative viability: 1.26
[3]; first compound 0.08 µM
  relative viability: 1.05
[3]; first compound 0.253 µM
  relative viability: 0.939
[3]; first compound 0.8 µM
  relative viability: 1.01
[3]; first compound 2.53 µM
  relative viability: 0.854
[3]; first compound 8 µM
  relative viability: 0.662
[4]; first compound 0.08 µM
  relative viability: 1.36
[4]; first compound 0.253 µM
  relative viability: 1.46
[4]; first compound 0.8 µM
  relative viability: 1.28
[4]; first compound 2.53 µM
  relative viability: 1.38
[4]; first compound 8 µM
  relative viability: 1.11

## NCI-H460
[1]; first compound 0.08 µM
  relative viability: 1.4
[1]; first compound 0.253 µM
  relative viability: 1.14
[1]; first compound 0.8 µM
  relative viability: 0.567
[1]; first compound 2.53 µM
  relative viability: 0.686
[1]; first compound 8 µM
  relative viability: 0.24
[2]; first compound 0.08 µM
  relative viability: 1.1
[2]; first compound 0.253 µM
  relative viability: 1.25
[2]; first compound 0.8 µM
  relative viability: 0.882
[2]; first compound 2.53 µM
  relative viability: 1.06
[2]; first compound 8 µM
  relative viability: 0.308
[3]; first compound 0.08 µM
  relative viability: 0.74
[3]; first compound 0.253 µM
  relative viability: 0.694
[3]; first compound 0.8 µM
  relative viability: 0.658
[3]; first compound 2.53 µM
  relative viability: 0.523
[3]; first compound 8 µM
  relative viability: 0.154
[4]; first compound 0.08 µM
  relative viability: 1.18
[4]; first compound 0.253 µM
  relative viability: 1.13
[4]; first compound 0.8 µM
  relative viability: 0.8
[4]; first compound 2.53 µM
  relative viability: 0.994
[4]; first compound 8 µM
  relative viability: 0.952

## NCI-H520
[1]; first compound 0.253 µM
  relative viability: 1.05
[1]; first compound 0.8 µM
  relative viability: 0.863
[1]; first compound 2.53 µM
  relative viability: 0.99
[1]; first compound 8 µM
  relative viability: 1.13
[2]; first compound 0.253 µM
  relative viability: 1.06
[2]; first compound 0.8 µM
  relative viability: 1.23
[2]; first compound 2.53 µM
  relative viability: 1.22
[2]; first compound 8 µM
  relative viability: 1.14
[3]; first compound 0.08 µM
  relative viability: 1.08
[3]; first compound 0.253 µM
  relative viability: 1.03
[3]; first compound 0.8 µM
  relative viability: 0.872
[3]; first compound 2.53 µM
  relative viability: 1.01
[3]; first compound 8 µM
  relative viability: 0.62
[4]; first compound 0.08 µM
  relative viability: 0.732
[4]; first compound 0.253 µM
  relative viability: 0.476
[4]; first compound 0.8 µM
  relative viability: 0.502
[4]; first compound 2.53 µM
  relative viability: 0.591
[4]; first compound 8 µM
  relative viability: 0.571

## NCI-H596
[1]; first compound 0.08 µM
  relative viability: 1
[1]; first compound 0.253 µM
  relative viability: 1.02
[1]; first compound 0.8 µM
  relative viability: 1.02
[1]; first compound 2.53 µM
  relative viability: 1.03
[1]; first compound 8 µM
  relative viability: 1.05
[2]; first compound 0.08 µM
  relative viability: 0.94
[2]; first compound 0.253 µM
  relative viability: 0.961
[2]; first compound 0.8 µM
  relative viability: 1.07
[2]; first compound 2.53 µM
  relative viability: 0.969
[2]; first compound 8 µM
  relative viability: 1.24
[3]; first compound 0.08 µM
  relative viability: 1.03
[3]; first compound 0.253 µM
  relative viability: 1.12
[3]; first compound 0.8 µM
  relative viability: 0.982
[3]; first compound 2.53 µM
  relative viability: 1.1
[3]; first compound 8 µM
  relative viability: 1.22
[4]; first compound 0.08 µM
  relative viability: 1
[4]; first compound 0.253 µM
  relative viability: 1.03
[4]; first compound 0.8 µM
  relative viability: 1.09
[4]; first compound 2.53 µM
  relative viability: 1.09
[4]; first compound 8 µM
  relative viability: 1.27

## NCI-H647
[1]; first compound 0.08 µM
  relative viability: 0.939
[1]; first compound 0.253 µM
  relative viability: 1.12
[1]; first compound 0.8 µM
  relative viability: 0.916
[1]; first compound 2.53 µM
  relative viability: 1.1
[1]; first compound 8 µM
  relative viability: 0.711
[2]; first compound 0.08 µM
  relative viability: 1.28
[2]; first compound 0.253 µM
  relative viability: 1.12
[2]; first compound 0.8 µM
  relative viability: 1.07
[2]; first compound 2.53 µM
  relative viability: 1.13
[2]; first compound 8 µM
  relative viability: 1.1
[3]; first compound 0.08 µM
  relative viability: 1.36
[3]; first compound 0.253 µM
  relative viability: 1.27
[3]; first compound 0.8 µM
  relative viability: 1.07
[3]; first compound 2.53 µM
  relative viability: 1.19
[3]; first compound 8 µM
  relative viability: 1.05
[4]; first compound 0.08 µM
  relative viability: 0.984
[4]; first compound 0.253 µM
  relative viability: 0.905
[4]; first compound 0.8 µM
  relative viability: 0.903
[4]; first compound 2.53 µM
  relative viability: 0.947
[4]; first compound 8 µM
  relative viability: 1.28

## NCI-H727
[1]; first compound 0.08 µM
  relative viability: 1
[1]; first compound 0.253 µM
  relative viability: 0.714
[1]; first compound 0.8 µM
  relative viability: 0.892
[1]; first compound 2.53 µM
  relative viability: 0.665
[1]; first compound 8 µM
  relative viability: 0.639
[2]; first compound 0.08 µM
  relative viability: 0.389
[2]; first compound 0.253 µM
  relative viability: 0.346
[2]; first compound 0.8 µM
  relative viability: 0.47
[2]; first compound 2.53 µM
  relative viability: 0.301
[2]; first compound 8 µM
  relative viability: 0.328
[3]; first compound 0.08 µM
  relative viability: 0.194
[3]; first compound 0.253 µM
  relative viability: 0.2
[3]; first compound 0.8 µM
  relative viability: 0.225
[3]; first compound 2.53 µM
  relative viability: 0.282
[3]; first compound 8 µM
  relative viability: 0.201
[4]; first compound 0.08 µM
  relative viability: 0.604
[4]; first compound 0.253 µM
  relative viability: 0.487
[4]; first compound 0.8 µM
  relative viability: 0.389
[4]; first compound 2.53 µM
  relative viability: 0.42
[4]; first compound 8 µM
  relative viability: 0.295

## NCI-H838
[1]; first compound 0.08 µM
  relative viability: 0.944
[1]; first compound 0.253 µM
  relative viability: 0.918
[1]; first compound 0.8 µM
  relative viability: 0.68
[1]; first compound 2.53 µM
  relative viability: 0.899
[1]; first compound 8 µM
  relative viability: 0.904
[2]; first compound 0.08 µM
  relative viability: 1.11
[2]; first compound 0.253 µM
  relative viability: 1.1
[2]; first compound 0.8 µM
  relative viability: 0.755
[2]; first compound 2.53 µM
  relative viability: 1.2
[2]; first compound 8 µM
  relative viability: 1.02
[3]; first compound 0.08 µM
  relative viability: 0.995
[3]; first compound 0.253 µM
  relative viability: 0.977
[3]; first compound 0.8 µM
  relative viability: 1.11
[3]; first compound 2.53 µM
  relative viability: 0.896
[3]; first compound 8 µM
  relative viability: 0.883
[4]; first compound 0.08 µM
  relative viability: 0.949
[4]; first compound 0.253 µM
  relative viability: 0.772
[4]; first compound 0.8 µM
  relative viability: 0.733
[4]; first compound 2.53 µM
  relative viability: 0.838
[4]; first compound 8 µM
  relative viability: 0.942

Reference: the supplement of paper PMC10307832
